From patent US20090137493A1, “Inhibition of tumor metastases using protein kinase C (PKC) inhibitors” (priority 2007, published 2009)
Bridges are numbered along the chain shown (N, C = ends). Where no end group is shown, it is not given here.

Assays:
[1] = system: matrix metalloproteinase 2 (MMP2); assay: MMP2 activity in tumor cells from treated animals; assay type: in vivo; details: cells from primary tumors of treated animals, versus saline or TAT, FIG. 10C
Source text: FIG. 10C is a bar graph showing the relative levels of matrix metalloproteinase 2 (MMP2) activity in tumor cells from animals treated with saline or TAT (untreated) or the αV5-3-TAT peptide (aV5-3).
Cells from primary tumors in animals treated with the αPKC inhibitor were also isolated and assayed for levels of CXCR4 (FIG. 10B) and levels of matrix metalloproteinase 2 (MMP2) activity (FIG. 10C).

[2] = system: MDA-MB-231 breast cancer cells; assay: Cell migration/invasion assay through a HUVEC monolayer, MDA-MB-231; assay type: cell-based, human; details: peptide 10 μM, re-applied every 2 hours for 10 hours
Source text: (§1) FIGS. 14A and 14B are bar graphs showing the efficacy of TAT carrier peptide (TAT), αV5-3-TAT peptide (Alpha), βIIV5-3 peptide (Beta-2), and εV1-2 (Epsilon) in inhibiting the invasion of human MDA-MB-231 and MCF-7 breast cancer cells through a HUVEC monolayer. FIGS. 14C and 14D are bar graphs showing the efficacy of TAT carrier peptide (TAT) or αV5-3-TAT peptide in inhibiting the invasion of 4T1 (FIG. 11C) and MDA-MB-231 (FIG. 11D) cells.
as §1, with “14B show the results of a related experiment measuring” for “14B are bar graphs showing”, “εV1-2 peptide” for “εV1-2”, “14D show the results of a similar experiment” for “14D are bar graphs”
Cell Migration/invasion assay: Primary human endothelial cells (HUVEC's) were plated on top of a matrigel plug in trans-well plates. Once the cells had reached confluence (as determined by examination of a control well), 1×10^6 human breast cancer cells (MCF-7 or MDA-MB-231) expressing luciferase were added above the HUVEC cell layer. Where applicable, peptides were added to a final concentration of 10 μM and re-applied every 2 hours for 10 hours followed by further incubation. After 24-48 hours-incubation the HUVEC cell layer (and all other cells above the matrigel) were removed by scraping of the cell layer into the media and aspiration (repeated 3 times). The relative numbers of cancer cells that had crossed the HUVEC cell layer and entered the matrigel was then determined by bioluminescence detection of luciferase action following addition of luciferin substrate.

YGRKKRRQRRR-CC-QLVIAN (YGRKKRRQRRRCCQLVIAN; disulfide 12-13 (inferred)) [αV5-3-TAT]
decrease of relative levels of MMP2 activity in tumor cells [1]: about 30%
invasion of MDA-MB-231 cells through a HUVEC monolayer [2]: reduced
